Data taken from publication PMC7663272, “Discovery of Tricyclic Pyranochromenone as Novel Bruton’s Tyrosine Kinase Inhibitors with In Vivo Antirheumatic Activity” (International Journal of Molecular Sciences, 2020).

Columns and labels:
Type in all cases: biochemical
ERBB4 = target: T1, ERBB4 (Homo sapiens, UniProt Q15303); assay: HotSpot kinase enzymatic assay, ERBB4
T1 construct: purchased Reaction Biology Corporation
Experimental: (§1) Therefore, efforts have focused on developing new compounds with good selectivity profiles. […] Compound 8 was selective against BTK. The biochemical activities of compound 8 differed among TEC family kinases. […] The inhibitory potential of compound 8 differed between members of the EGFR family. […] The inhibitory activity of compound 8 against JAK3 was also low.
(§2) Kinase enzymatic assays for BTK, BMX, TXK, TEC, ITK, EGFR, ERBB2, ERBB4, and JAK3 were performed at Reaction Biology Corporation (www.reactionbiology.com, Malvern, PA, USA) using the HotSpot assay platform. Briefly, specific kinase/substrate pairs and the required cofactors were prepared in a reaction buffer comprising 20 mM HEPES (pH 7.5), 10 mM MgCl2, 1 mM EGTA, 0.02% Brij35, 0.02 mg/mL BSA, 0.1 mM Na3VO4, 2 mM DTT, and 1% DMSO. The compounds were added to the reaction mixture and allowed to incubate. Approximately 20 min later, a mixture of ATP (Sigma-Aldrich, St. Louis, MO, USA) and ^33P ATP (PerkinElmer, Waltham, MA, USA) was added to the reaction mixture at a final concentration of 10 μM. The reactions were performed at room temperature for 120 min; subsequently, the reactions were spotted onto P81 ion exchange filter papers (Whatman Inc., Maidstone, UK). Any unbound phosphate was removed by thoroughly washing the filter papers with 0.75% phosphoric acid. […]

JAK3 = target: T2, JAK3 (Homo sapiens, UniProt P52333); assay: HotSpot kinase enzymatic assay, JAK3
T2 construct: purchased Reaction Biology Corporation
T2 sequence (P52333 1-1124): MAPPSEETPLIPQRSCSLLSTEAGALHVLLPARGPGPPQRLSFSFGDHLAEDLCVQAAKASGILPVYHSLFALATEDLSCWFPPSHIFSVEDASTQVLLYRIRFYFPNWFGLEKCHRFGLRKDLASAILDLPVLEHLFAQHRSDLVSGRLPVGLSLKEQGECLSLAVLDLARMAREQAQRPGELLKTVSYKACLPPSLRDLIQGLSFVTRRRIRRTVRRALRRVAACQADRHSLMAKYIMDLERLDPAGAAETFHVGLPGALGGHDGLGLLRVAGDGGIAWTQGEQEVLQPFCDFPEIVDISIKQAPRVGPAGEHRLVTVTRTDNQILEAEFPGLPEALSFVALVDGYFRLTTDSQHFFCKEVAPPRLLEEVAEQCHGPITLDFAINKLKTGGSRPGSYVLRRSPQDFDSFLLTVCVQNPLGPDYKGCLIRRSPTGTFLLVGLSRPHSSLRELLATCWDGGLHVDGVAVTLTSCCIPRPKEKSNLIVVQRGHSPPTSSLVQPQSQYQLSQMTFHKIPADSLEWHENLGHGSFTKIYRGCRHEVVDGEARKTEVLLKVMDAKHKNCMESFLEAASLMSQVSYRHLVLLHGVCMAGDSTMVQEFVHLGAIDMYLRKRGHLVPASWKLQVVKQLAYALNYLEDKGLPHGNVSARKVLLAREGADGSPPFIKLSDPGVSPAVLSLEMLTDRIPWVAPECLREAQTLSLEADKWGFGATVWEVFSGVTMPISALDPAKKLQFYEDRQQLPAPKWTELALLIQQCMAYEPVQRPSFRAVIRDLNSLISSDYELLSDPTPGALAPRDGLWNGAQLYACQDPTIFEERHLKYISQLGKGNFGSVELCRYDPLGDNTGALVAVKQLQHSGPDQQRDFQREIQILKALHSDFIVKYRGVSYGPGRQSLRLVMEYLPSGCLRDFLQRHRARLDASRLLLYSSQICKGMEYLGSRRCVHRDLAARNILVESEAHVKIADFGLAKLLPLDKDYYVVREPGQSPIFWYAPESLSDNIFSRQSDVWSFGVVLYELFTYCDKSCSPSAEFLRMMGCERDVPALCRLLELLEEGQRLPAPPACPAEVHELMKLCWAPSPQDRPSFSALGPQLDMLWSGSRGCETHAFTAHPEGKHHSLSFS
Experimental: as §1, §2

BMX = target: T3, BMX (Homo sapiens, UniProt P51813); assay: HotSpot kinase enzymatic assay, BMX
T3 construct: purchased Reaction Biology Corporation
T3 sequence (P51813 1-675): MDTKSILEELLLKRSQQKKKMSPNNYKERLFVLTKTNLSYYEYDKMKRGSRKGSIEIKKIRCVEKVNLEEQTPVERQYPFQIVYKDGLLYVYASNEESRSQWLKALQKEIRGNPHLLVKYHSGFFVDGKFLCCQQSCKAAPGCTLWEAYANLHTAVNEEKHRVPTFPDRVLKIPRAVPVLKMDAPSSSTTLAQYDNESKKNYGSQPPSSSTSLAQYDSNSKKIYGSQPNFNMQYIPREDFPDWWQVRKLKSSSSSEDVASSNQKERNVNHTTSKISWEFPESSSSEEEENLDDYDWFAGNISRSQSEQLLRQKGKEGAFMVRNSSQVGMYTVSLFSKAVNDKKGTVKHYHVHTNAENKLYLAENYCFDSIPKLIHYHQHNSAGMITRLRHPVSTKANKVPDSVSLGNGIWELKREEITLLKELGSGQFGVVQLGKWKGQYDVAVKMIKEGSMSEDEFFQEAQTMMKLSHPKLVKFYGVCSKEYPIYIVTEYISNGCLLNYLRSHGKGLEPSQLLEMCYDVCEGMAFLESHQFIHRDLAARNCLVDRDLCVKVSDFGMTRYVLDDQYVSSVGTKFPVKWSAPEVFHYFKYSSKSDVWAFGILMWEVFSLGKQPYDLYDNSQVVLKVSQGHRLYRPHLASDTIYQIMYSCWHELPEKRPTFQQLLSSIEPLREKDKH
Experimental: as §1, §2

T1 sequence (Q15303 26-1308): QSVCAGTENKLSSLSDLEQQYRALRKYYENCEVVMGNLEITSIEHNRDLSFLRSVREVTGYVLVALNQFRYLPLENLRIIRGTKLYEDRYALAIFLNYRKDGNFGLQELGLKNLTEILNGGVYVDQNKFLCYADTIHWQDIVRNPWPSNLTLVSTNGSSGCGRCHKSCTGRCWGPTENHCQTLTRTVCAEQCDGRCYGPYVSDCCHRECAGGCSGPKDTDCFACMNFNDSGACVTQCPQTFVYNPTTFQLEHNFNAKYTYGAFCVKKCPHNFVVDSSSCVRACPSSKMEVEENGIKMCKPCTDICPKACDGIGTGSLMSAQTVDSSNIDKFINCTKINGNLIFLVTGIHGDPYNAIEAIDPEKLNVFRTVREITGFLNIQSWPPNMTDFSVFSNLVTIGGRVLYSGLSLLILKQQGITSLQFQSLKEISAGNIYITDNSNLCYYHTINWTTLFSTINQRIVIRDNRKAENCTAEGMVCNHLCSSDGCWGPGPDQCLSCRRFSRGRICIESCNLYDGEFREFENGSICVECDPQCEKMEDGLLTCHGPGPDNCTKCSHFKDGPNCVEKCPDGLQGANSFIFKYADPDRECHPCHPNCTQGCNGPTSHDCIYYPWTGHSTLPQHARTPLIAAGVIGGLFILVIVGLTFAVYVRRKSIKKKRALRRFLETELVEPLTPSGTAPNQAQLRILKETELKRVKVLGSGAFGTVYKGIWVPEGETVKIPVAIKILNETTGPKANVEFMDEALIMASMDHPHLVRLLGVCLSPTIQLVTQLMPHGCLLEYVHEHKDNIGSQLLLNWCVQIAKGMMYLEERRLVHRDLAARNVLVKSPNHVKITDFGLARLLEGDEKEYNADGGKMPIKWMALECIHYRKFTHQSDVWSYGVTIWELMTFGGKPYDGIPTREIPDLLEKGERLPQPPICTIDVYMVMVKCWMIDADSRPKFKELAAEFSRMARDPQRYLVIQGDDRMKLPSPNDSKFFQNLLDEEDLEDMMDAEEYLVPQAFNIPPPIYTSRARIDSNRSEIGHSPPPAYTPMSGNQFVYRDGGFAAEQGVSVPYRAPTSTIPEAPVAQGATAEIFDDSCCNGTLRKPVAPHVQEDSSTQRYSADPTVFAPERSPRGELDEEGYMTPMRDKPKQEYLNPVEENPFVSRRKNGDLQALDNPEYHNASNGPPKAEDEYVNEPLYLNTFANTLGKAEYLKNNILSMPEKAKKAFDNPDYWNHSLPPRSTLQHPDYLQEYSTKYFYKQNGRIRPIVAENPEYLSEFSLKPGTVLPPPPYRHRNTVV

Compound: C=CC(=O)O[C@H]1Cc2cc3ccc(=O)oc3cc2OC1(C)C [Compound 8, (7S)-(+)-Acrylic acid, 8,8-dimethyl-2-oxo-6,7-dihydro-2H,8H-pyrano [3,2-g]chromen-7-yl ester]
- inhibitory activity against ERBB4 (in words) (ERBB4): inactive
- inhibitory activity against JAK3 (in words) (JAK3): low
- inhibition at 10 µM (JAK3; 10 µM, mean of two experiments): 13.2%
- inhibitory activity against BMX (in words) (BMX): strong inhibitory activity
- inhibition at 10 µM (BMX; 10 µM, mean of two experiments): 95.4%
